Measurements reported in ChEMBL document CHEMBL5131388, “Discovery of novel brain-penetrant GluN2B NMDAR antagonists via pharmacophore-merging strategy as anti-stroke therapeutic agents” (Eur J Med Chem, 2022).

Assays:
[1] = Tmax in Sprague-Dawley rat at 2.5 mg/kg, iv measured up to 24 hrs by LC/MS-MS analysis; type: ADME, organism-based; conditions: in vivo
[2] = Neuroprotective activity against NMDA-induced neurotoxicity in Sprague-Dawley rat hippocampal neurons assessed as increase in cell viability at 0.1 uM incubated for 18 hrs followed by NMDA addition and measured after 0.5 hrs by MTT assay; type: functional, Hippocampal neurone; conditions: time 18.5 hrs, 0.1 µM
[3] = Neuroprotective activity against NMDA-induced neurotoxicity in Sprague-Dawley rat hippocampal neurons assessed as increase in cell viability at 1 uM incubated for 18 hrs followed by NMDA addition and measured after 0.5 hrs by MTT assay; type: functional, Hippocampal neurone; conditions: time 18.5 hrs, 1 µM
[4] = Neuroprotective activity against NMDA-induced neurotoxicity in Sprague-Dawley rat hippocampal neurons assessed as increase in cell viability at 10 uM incubated for 18 hrs followed by NMDA addition and measured after 0.5 hrs by MTT assay; type: functional, Hippocampal neurone; conditions: time 18.5 hrs, 10 µM
[5] = molecular target: Glutamate NMDA receptor; assay: Displacement of [3H] ifenprodil from Wistar rat glutamate NMDA receptor incubated for 2 hrs by scintillation counting method; type: protein-complex assay
[6] = test system: Rattus norvegicus; assay: Neuroprotective activity in Sprague-Dawley rat model of middle cerebral artery occlusion-induced ischemia-reperfusion injury assessed as decrease in neurological score at 20 mg/kg, po measured 24 hrs post injury by TTC staining based histological analysis; type: functional
[7] = test system: Rattus norvegicus; assay: Neuroprotective activity in Sprague-Dawley rat model of middle cerebral artery occlusion-induced ischemia-reperfusion injury assessed as decrease in cerebral infarction rate at 20 mg/kg, po measured 24 hrs post injury by TTC staining based histological analysis; type: functional; set-up: scale not given: the % may be the effect or the level left
[8] = Tmax in Sprague-Dawley rat at 10 mg/kg, po measured up to 24 hrs by LC/MS-MS analysis; type: ADME, organism-based; conditions: in vivo
[9] = Cmax in Sprague-Dawley rat at 2.5 mg/kg, iv measured up to 24 hrs by LC/MS-MS analysis; type: ADME, organism-based; set-up: dose 2.5 mg/kg, time < 24 hrs, route iv; conditions: in vivo
[10] = Cmax in Sprague-Dawley rat at 10 mg/kg, po measured up to 24 hrs by LC/MS-MS analysis; type: ADME, organism-based; set-up: dose 10 mg/kg, time < 24 hrs, route po; conditions: in vivo
[11] = AUClast in Sprague-Dawley rat at 2.5 mg/kg, iv measured up to 24 hrs by LC/MS-MS analysis; type: ADME, organism-based; set-up: dose 2.5 mg/kg, time < 24 hrs, route iv; conditions: in vivo
[12] = AUClast in Sprague-Dawley rat at 10 mg/kg, po measured up to 24 hrs by LC/MS-MS analysis; type: ADME, organism-based; set-up: dose 10 mg/kg, time < 24 hrs, route po; conditions: in vivo
[13] = AUCinf in Sprague-Dawley rat at 2.5 mg/kg, iv measured up to 24 hrs by LC/MS-MS analysis; type: ADME, organism-based; set-up: dose 2.5 mg/kg, time < 24 hrs, route iv; conditions: in vivo
[14] = AUCinf in Sprague-Dawley rat at 10 mg/kg, po measured up to 24 hrs by LC/MS-MS analysis; type: ADME, organism-based; set-up: time < 24 hrs, dose 10 mg/kg, route po; conditions: in vivo
[15] = MRTinf in Sprague-Dawley rat at 2.5 mg/kg, iv measured up to 24 hrs by LC/MS-MS analysis; type: ADME, organism-based; conditions: in vivo
[16] = MRTinf in Sprague-Dawley rat at 10 mg/kg, po measured up to 24 hrs by LC/MS-MS analysis; type: ADME, organism-based; conditions: in vivo
[17] = Clearance in Sprague-Dawley rat at 2.5 mg/kg, iv measured up to 24 hrs by LC/MS-MS analysis; type: ADME, organism-based; conditions: in vivo
[18] = Half life in Sprague-Dawley rat at 2.5 mg/kg, iv measured up to 24 hrs by LC/MS-MS analysis; type: ADME, organism-based; conditions: in vivo
[19] = Half life in Sprague-Dawley rat at 10 mg/kg, po measured up to 24 hrs by LC/MS-MS analysis; type: ADME, organism-based; conditions: in vivo
[20] = Bioavailability in Sprague-Dawley rat at 2.5 mg/kg, iv measured up to 24 hrs by LC/MS-MS analysis; type: ADME, organism-based; conditions: in vivo
[21] = Ratio AUClast in Sprague-Dawley rat brain to plasma at 2.5 mg/kg, iv measured up to 24 hrs by LC/MS-MS analysis; type: ADME, organism-based; conditions: brain and plasma
[22] = Ratio AUClast in Sprague-Dawley rat brain to plasma at 10 mg/kg, po measured up to 24 hrs by LC/MS-MS analysis; type: ADME, organism-based; conditions: brain and plasma
[23] = Toxicity in Sprague-Dawley rat assessed as animal death at 300 mg/kg, po administered as repeated dose once daily for 2 weeks; type: organism-based; conditions: in vivo, 336 h
[24] = Toxicity in Sprague-Dawley rat assessed as change in liver/brain index at 150 to 300 mg/kg, po administered as repeated dose once daily for 2 weeks; type: organism-based; conditions: in vivo, 336 h, dose 150-300 mg/kg
[25] = Toxicity in Sprague-Dawley rat assessed as change in kidney/brain index at 150 to 300 mg/kg, po administered as repeated dose once daily for 2 weeks; type: organism-based; conditions: in vivo, 336 h, dose 150-300 mg/kg
[26] = Toxicity in Sprague-Dawley rat assessed as change in spleen/brain index at 150 to 300 mg/kg, po administered as repeated dose once daily for 2 weeks; type: organism-based; conditions: in vivo, 336 h, dose 150-300 mg/kg
[27] = Toxicity in Sprague-Dawley rat assessed as change in white blood cell count at 150 to 300 mg/kg, po administered as repeated dose once daily for 2 weeks; type: organism-based; conditions: in vivo, 336 h, dose 150-300 mg/kg
[28] = Toxicity in Sprague-Dawley rat assessed as change in ALT level at 150 to 300 mg/kg, po administered as repeated dose once daily for 2 weeks; type: organism-based; conditions: in vivo, 336 h, dose 150-300 mg/kg
[29] = Toxicity in Sprague-Dawley rat assessed as change in AST level at 150 to 300 mg/kg, po administered as repeated dose once daily for 2 weeks; type: organism-based; conditions: in vivo, 336 h, dose 150-300 mg/kg
[30] = Toxicity in Sprague-Dawley rat assessed as change in blood pressure at 150 to 300 mg/kg, po administered as repeated dose once daily for 2 weeks; type: organism-based; conditions: in vivo, 336 h, dose 150-300 mg/kg
[31] = Toxicity in Sprague-Dawley rat assessed as change in blood glucose level at 150 to 300 mg/kg, po administered as repeated dose once daily for 2 weeks; type: organism-based; conditions: in vivo, 336 h, dose 150-300 mg/kg
[32] = Toxicity in Sprague-Dawley rat assessed as body weight loss at 300 mg/kg, po administered as repeated dose once daily for 2 weeks; type: organism-based; conditions: in vivo, 336 h
[33] = Toxicity in Sprague-Dawley rat assessed as increase in AST level at 300 mg/kg, po administered as repeated dose once daily for 2 weeks; type: organism-based; conditions: in vivo, 336 h

Q: For O=C1OC(CCCN2CCN(Cc3ccc(C(F)(F)F)cc3)CC2)c2ccccc21 (racemic), which Tmax [1] is on record?
A: The Tmax was 1.02 min.

Q: What about the Activity [2] of the same compound?
A: Its Activity is 60.14%.

Q: And the Activity [3]?
A: The Activity was 78.45%.

Q: And the Activity [4]?
A: Its Activity is 89.8%.

Q: What about the Ki [5] of the same compound?
A: Its Ki is 3.26 nM.

Q: And the Activity [6]?
A: The Activity was 1.88.

Q: And the Activity [7]?
A: Its Activity is 16.08%.

Q: What about the Tmax [8] of the same compound?
A: Its Tmax is 1.5 h.

Q: And the Cmax [9]?
A: Its Cmax is 2360 ng/mL.

Q: And the Cmax [10]?
A: The Cmax was 972 ng/mL.

Q: What about the AUC(0-t) at 24 h [11] of the same compound?
A: The AUC(0-t) at 24 h was 1450 ng·h/mL.

Q: What about the AUC(0-t) at 24 h [12] of the same compound?
A: Its AUC(0-t) at 24 h is 3670 ng·h/mL.

Q: What about the AUC(0-inf) [13] of the same compound?
A: The AUC(0-inf) was 1580 ng·h/mL.

Q: And the AUC(0-inf) [14]?
A: Its AUC(0-inf) is 4070 ng·h/mL.

Q: And the MRT inf [15]?
A: Its MRT inf is 1.68 h.

Q: And the MRT inf [16]?
A: The MRT inf was 3.25 h.

Q: What about the clearance [17] of the same compound?
A: Its clearance is 29.5 mL/min/kg.

Q: What about the half-life [18] of the same compound?
A: Its half-life is 1.73 h.

Q: And the half-life [19]?
A: The half-life was 1.88 h.

Q: What about the bioavailability [20] of the same compound?
A: The bioavailability was 63.4%.

Q: And the Kp at 24 h [21]?
A: The Kp at 24 h was 0.71.

Q: What about the Kp at 24 h [22] of the same compound?
A: Its Kp at 24 h is 0.85.

Q: And the Activity [23]?
A: Its Activity is “Non-Toxic”.

Q: And the Activity [24]?
A: The Activity was “Non-Toxic”.

Q: What about the Activity [25] of the same compound?
A: The Activity was “Non-Toxic”.

Q: And the Activity [26]?
A: The Activity was “Non-Toxic”.

Q: And the Activity [27]?
A: The Activity was “Non-Toxic”.

Q: And the Activity [28]?
A: The Activity was “Non-Toxic”.

Q: And the Activity [29]?
A: Its Activity is “Non-Toxic”.

Q: What about the Activity [30] of the same compound?
A: The Activity was “Non-Toxic”.

Q: And the Activity [31]?
A: The Activity was “Non-Toxic”.

Q: And the Activity [32]?
A: The Activity was “Toxic”.

Q: And the Activity [33]?
A: Its Activity is “Toxic”.
